Assay results from patent US11320434B2, “Method and apparatus for rapid detection of SARS-CoV-2” (priority 2020, dated 2022).

Experiments:
[1] = tested on: tetracysteine-containing peptide; conditions: peptide-bound versus free FlAsH-EDT2; cited from earlier work
[2] = molecular target: T1, K9K peptide ([…], SARS-CoV-2 spike protein position 1245 to 1255) (Severe acute respiratory syndrome coronavirus 2, UniProt P0DTC2); type: binding
T1 construct: purchased Innovagen AB

For `O=C(O)c1ccccc1-c1c2ccc(=O)c([As]3SCCS3)c-2oc2c([As]3SCCS3)c(O)ccc12` [FlAsH, 2-(4,5-di(1,3,2-dithiarsolan-2-yl)-6-hydroxy-3-oxo-3H-xanthen-9-yl)benzoic acid], the “increase in fluorescence upon exchanging the EDTs for a tetracysteine-containing peptide” value [1] is listed as “more than 50,000 times”, the “change of fluorescence after heating the mixture” value [2] is listed as “more than doubled” and the “effect of a reducing agent on emitted fluorescence” value [2] is listed as “can be enhanced”. The “emission of K9K-FlAsH versus FlAsH Control” value [2] was “meaningfully greater”, the “emitted fluorescence versus Control at K9K dilutions” value [2] was “meaningful increases over the Control” and the “fluorescence after prior oxidation of K9K cysteine residues by DTNB (Curve 2)” value [2] was “prevents generation of fluorescence”. For the same molecule, the “fluorescence after treatment of oxidized K9K with TCEP (Curve 3)” value [2] was “recovery of fluorescence”, the “fluorescence on treatment of peptide K9K with FlAsH (Curve 1)” value [2] was “rapidly generate intense fluorescence emission” and the “fluorescence with TCEP and heating versus without TCEP or heating” value [2] was “nearly six times greater”. For the same molecule, the “time at which emission of fluorescence begins” value [2] was at most 15 s.
